{"source": "the supplement of paper PMC10733146", "assay_in_all_cases": "viability relative to DMSO control (fraction); higher = less drug effect (more viable cells)", "settings_in_all_cases": "48 h", "key": {"[1]": {"system": "primary CLL patient cells (S043)", "how_it_was_run": "(§1)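 Cells were incubated for 48 h at 37 °C and 5% CO2 in RPMI-1640 with penicillin/streptomycin, L-glutamine and human serum, at 4 × 10^4 cells per well in 384-well plates with compounds pre-plated at five concentrations, one well each. These were primary mononuclear tumour cells, fresh or cryopreserved, Ficoll-isolated from blood or bone marrow or obtained from processed lymph node. Viability values are CellTiter-Glo luminescence relative to the median of 16 inner DMSO wells.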"}, "[2]": {"system": "primary DLBCL patient cells (S076)", "how_it_was_run": "as §1"}, "[3]": {"system": "primary AML patient cells (S021)", "how_it_was_run": "as §1"}, "[4]": {"system": "primary AML patient cells (S012)", "how_it_was_run": "as §1"}, "[5]": {"system": "primary AML patient cells (S011)", "how_it_was_run": "as §1"}, "[6]": {"system": "primary DLBCL patient cells (S049)", "how_it_was_run": "as §1"}, "[7]": {"system": "primary AML patient cells (S019)", "how_it_was_run": "as §1"}, "[8]": {"system": "primary AML patient cells (S025)", "how_it_was_run": "as §1"}, "[9]": {"system": "primary AML patient cells (S081)", "how_it_was_run": "as §1"}, "[10]": {"system": "primary AML patient cells (S017)", "how_it_was_run": "as §1"}, "[11]": {"system": "primary AML patient cells (S006)", "how_it_was_run": "as §1"}, "[12]": {"system": "primary AML patient cells (S091)", "how_it_was_run": "as §1"}, "[13]": {"system": "primary AML patient cells (S085)", "how_it_was_run": "as §1"}, "[14]": {"system": "primary AML patient cells (S089)", "how_it_was_run": "as §1"}, "[15]": {"system": "primary AML patient cells (S002)", "how_it_was_run": "as §1"}, "[16]": {"system": "primary AML patient cells (S037)", "how_it_was_run": "as §1"}, "[17]": {"system": "primary T-NHL patient cells (S058)", "how_it_was_run": "as §1"}}, "data": [{"smiles": "Oc1ccc(/C=C/c2cc(O)cc(O)c2)cc1", "note": "[Resveratrol]", "values": [{"measurement": "viability", "setting": "[1]; 0.024 µM", "value": 0.825}, {"measurement": "viability", "setting": "[1]; 0.12 µM", "value": 0.864}, {"measurement": "viability", "setting": "[1]; 0.6 µM", "value": 0.821}, {"measurement": "viability", "setting": "[1]; 3 µM", "value": 0.799}, {"measurement": "viability", "setting": "[1]; 15 µM", "value": 0.711}, {"measurement": "viability", "setting": "[2]; 0.024 µM", "value": 0.961}, {"measurement": "viability", "setting": "[2]; 0.12 µM", "value": 0.963}, {"measurement": "viability", "setting": "[2]; 0.6 µM", "value": 0.955}, {"measurement": "viability", "setting": "[2]; 3 µM", "value": 0.94}, {"measurement": "viability", "setting": "[2]; 15 µM", "value": 0.882}, {"measurement": "viability", "setting": "[3]; 0.024 µM", "value": 0.84}, {"measurement": "viability", "setting": "[3]; 0.12 µM", "value": 0.845}, {"measurement": "viability", "setting": "[3]; 0.6 µM", "value": 0.772}, {"measurement": "viability", "setting": "[3]; 3 µM", "value": 0.693}, {"measurement": "viability", "setting": "[3]; 15 µM", "value": 0.55}, {"measurement": "viability", "setting": "[4]; 0.024 µM", "value": 0.981}, {"measurement": "viability", "setting": "[4]; 0.12 µM", "value": 1.02}, {"measurement": "viability", "setting": "[4]; 0.6 µM", "value": 0.972}, {"measurement": "viability", "setting": "[4]; 3 µM", "value": 0.957}, {"measurement": "viability", "setting": "[4]; 15 µM", "value": 0.986}, {"measurement": "viability", "setting": "[5]; 0.024 µM", "value": 0.808}, {"measurement": "viability", "setting": "[5]; 0.12 µM", "value": 0.789}, {"measurement": "viability", "setting": "[5]; 0.6 µM", "value": 0.757}, {"measurement": "viability", "setting": "[5]; 3 µM", "value": 0.747}, {"measurement": "viability", "setting": "[5]; 15 µM", "value": 0.682}, {"measurement": "viability", "setting": "[6]; 0.024 µM", "value": 0.849}, {"measurement": "viability", "setting": "[6]; 0.12 µM", "value": 0.846}, {"measurement": "viability", "setting": "[6]; 0.6 µM", "value": 0.826}, {"measurement": "viability", "setting": "[6]; 3 µM", "value": 0.732}, {"measurement": "viability", "setting": "[6]; 15 µM", "value": 0.711}, {"measurement": "viability", "setting": "[7]; 0.024 µM", "value": 0.879}, {"measurement": "viability", "setting": "[7]; 0.12 µM", "value": 0.928}, {"measurement": "viability", "setting": "[7]; 0.6 µM", "value": 1}, {"measurement": "viability", "setting": "[7]; 3 µM", "value": 0.918}, {"measurement": "viability", "setting": "[7]; 15 µM", "value": 0.924}, {"measurement": "viability", "setting": "[8]; 0.024 µM", "value": 0.933}, {"measurement": "viability", "setting": "[8]; 0.12 µM", "value": 0.921}, {"measurement": "viability", "setting": "[8]; 0.6 µM", "value": 0.883}, {"measurement": "viability", "setting": "[8]; 3 µM", "value": 0.891}, {"measurement": "viability", "setting": "[8]; 15 µM", "value": 0.758}, {"measurement": "viability", "setting": "[9]; 0.024 µM", "value": 0.814}, {"measurement": "viability", "setting": "[9]; 0.12 µM", "value": 0.846}, {"measurement": "viability", "setting": "[9]; 0.6 µM", "value": 0.806}, {"measurement": "viability", "setting": "[9]; 3 µM", "value": 0.762}, {"measurement": "viability", "setting": "[9]; 15 µM", "value": 0.794}, {"measurement": "viability", "setting": "[10]; 0.024 µM", "value": 0.89}, {"measurement": "viability", "setting": "[10]; 0.12 µM", "value": 0.933}, {"measurement": "viability", "setting": "[10]; 0.6 µM", "value": 0.92}, {"measurement": "viability", "setting": "[10]; 3 µM", "value": 0.883}, {"measurement": "viability", "setting": "[10]; 15 µM", "value": 0.902}, {"measurement": "viability", "setting": "[11]; 0.024 µM", "value": 0.862}, {"measurement": "viability", "setting": "[11]; 0.12 µM", "value": 0.866}, {"measurement": "viability", "setting": "[11]; 0.6 µM", "value": 0.845}, {"measurement": "viability", "setting": "[11]; 3 µM", "value": 0.872}, {"measurement": "viability", "setting": "[11]; 15 µM", "value": 0.804}, {"measurement": "viability", "setting": "[12]; 0.024 µM", "value": 0.863}, {"measurement": "viability", "setting": "[12]; 0.12 µM", "value": 0.832}, {"measurement": "viability", "setting": "[12]; 0.6 µM", "value": 0.868}, {"measurement": "viability", "setting": "[12]; 3 µM", "value": 0.708}, {"measurement": "viability", "setting": "[12]; 15 µM", "value": 0.553}, {"measurement": "viability", "setting": "[13]; 0.024 µM", "value": 0.783}, {"measurement": "viability", "setting": "[13]; 0.12 µM", "value": 0.735}, {"measurement": "viability", "setting": "[13]; 0.6 µM", "value": 0.819}, {"measurement": "viability", "setting": "[13]; 3 µM", "value": 0.735}, {"measurement": "viability", "setting": "[13]; 15 µM", "value": 0.658}, {"measurement": "viability", "setting": "[14]; 0.024 µM", "value": 0.819}, {"measurement": "viability", "setting": "[14]; 0.12 µM", "value": 0.652}, {"measurement": "viability", "setting": "[14]; 0.6 µM", "value": 0.672}, {"measurement": "viability", "setting": "[14]; 3 µM", "value": 0.53}, {"measurement": "viability", "setting": "[14]; 15 µM", "value": 0.549}, {"measurement": "viability", "setting": "[15]; 0.024 µM", "value": 0.873}, {"measurement": "viability", "setting": "[15]; 0.12 µM", "value": 0.932}, {"measurement": "viability", "setting": "[15]; 0.6 µM", "value": 0.894}, {"measurement": "viability", "setting": "[15]; 3 µM", "value": 0.796}, {"measurement": "viability", "setting": "[15]; 15 µM", "value": 0.604}, {"measurement": "viability", "setting": "[16]; 0.024 µM", "value": 0.792}, {"measurement": "viability", "setting": "[16]; 0.12 µM", "value": 0.994}, {"measurement": "viability", "setting": "[16]; 0.6 µM", "value": 0.881}, {"measurement": "viability", "setting": "[16]; 3 µM", "value": 0.84}, {"measurement": "viability", "setting": "[16]; 15 µM", "value": 0.96}, {"measurement": "viability", "setting": "[17]; 0.024 µM", "value": 0.917}, {"measurement": "viability", "setting": "[17]; 0.12 µM", "value": 0.998}, {"measurement": "viability", "setting": "[17]; 0.6 µM", "value": 0.957}, {"measurement": "viability", "setting": "[17]; 3 µM", "value": 0.895}, {"measurement": "viability", "setting": "[17]; 15 µM", "value": 0.948}]}]}
